Tests used:
[1] = test system: Human immunodeficiency virus 1; experiment: Antiviral activity against HIV-1 IIIB infected in human MT4 cells assessed as reduction in viral replication by MTT assay; type: functional, organism-based; details: Human immunodeficiency virus 1, IIIB
[2] = test system: Human immunodeficiency virus 1; experiment: Antiviral activity against HIV-1 ROD infected in human MT4 cells assessed as reduction in viral replication by MTT assay; type: functional, organism-based
[3] = Cytotoxicity against human MT4 cells assessed as reduction on cell growth by MTT assay; type: toxicity, cell-based
[4] = Selectivity index, ratio of CC50 for cytotoxicity against human MT4 cells to EC50 of Anti-HIV activity against HIV-1 IIIB infected in human MT4 cells; type: toxicity, cell-based; details: read-out: Ratio CC50/EC50
[5] = test system: Human immunodeficiency virus 1; experiment: Antiviral activity against HIV-1 L100I mutant infected in human MT4 cells assessed as reduction in viral replication by MTT assay; type: functional, organism-based; details: Human immunodeficiency virus 1, L100I mutant
[6] = test system: Human immunodeficiency virus 1; experiment: Antiviral activity against HIV-1 K103N mutant infected in human MT4 cells assessed as reduction in viral replication by MTT assay; type: functional, organism-based; details: Human immunodeficiency virus 1, K103N mutant
[7] = test system: Human immunodeficiency virus 1; experiment: Antiviral activity against HIV-1 Y181C mutant infected in human MT4 cells assessed as reduction in viral replication by MTT assay; type: functional, organism-based; details: Human immunodeficiency virus 1, Y181C mutant
[8] = test system: Human immunodeficiency virus 1; experiment: Antiviral activity against HIV-1 Y188L mutant infected in human MT4 cells assessed as reduction in viral replication by MTT assay; type: functional, organism-based; details: Human immunodeficiency virus 1, Y188L mutant
[9] = test system: Human immunodeficiency virus 1; experiment: Antiviral activity against HIV-1 E138K mutant infected in human MT4 cells assessed as reduction in viral replication by MTT assay; type: functional, organism-based; details: Human immunodeficiency virus 1, E138K mutant
[10] = test system: Human immunodeficiency virus 1; experiment: Antiviral activity against HIV-1 F227L-V106A mutant infected in human MT4 cells assessed as reduction in viral replication by MTT assay; type: functional, organism-based; details: Human immunodeficiency virus 1, F227L-V106A mutant
[11] = test system: Human immunodeficiency virus 1; experiment: Antiviral activity against HIV-1 K103N-Y181C mutant infected in human MT4 cells assessed as reduction in viral replication by MTT assay; type: functional, organism-based; details: Human immunodeficiency virus 1, K103N-Y181C mutant
[12] = target: Human immunodeficiency virus type 1 reverse transcriptase (Human immunodeficiency virus 1, UniProt Q72547); experiment: Inhibition of wild type HIV-1 Reverse transcriptase

SMILES	EC50 [1] [µM]	EC50 [2] [µM]	CC50 [3] [µM]	selectivity ratio [4]	EC50 [5] [µM]	EC50 [6] [µM]	EC50 [7] [µM]	EC50 [8] [µM]	EC50 [9] [µM]	EC50 [10] [µM]	EC50 [11] [µM]	IC50 [12] [µM]
Cn1c(Cn2ccc(C(F)(F)F)c(Oc3ccc(-c4cc(F)cc(C#N)c4)cc3Cl)c2=O)n[nH]c1=O	3.38	> 35	19.3	5.71	2.41	3.29	7.14	> 35	3.29	> 35	> 35	4.37
Cn1c(Cn2ccc(C(F)(F)F)c(Oc3ccc(-c4ccc(F)c(C#N)c4)cc3Cl)c2=O)n[nH]c1=O	4.53	> 35	24.4	5.39	3.31	3.87	> 35	> 35	6.78	> 35	> 35	10.3
Cc1cccc(-c2ccc(Oc3c(C(F)(F)F)ccn(Cc4n[nH]c(=O)n4C)c3=O)cc2C)c1	4.38	> 35	23.8	5.43	3.23	> 35	7.51	> 35	> 35	> 35	> 35	6.54
Cc1cc(Oc2c(C(F)(F)F)ccn(Cc3n[nH]c(=O)n3C)c2=O)ccc1-c1ccc(F)c(C#N)c1	0.6	> 35	42.5	70.6	1.58	2.33	6.91	> 35	1.37	> 35	> 35	1.46
Cc1cc(Oc2c(C(F)(F)F)ccn(Cc3n[nH]c(=O)n3C)c2=O)ccc1-c1cc(F)cc(C#N)c1	1.55	> 35	45.6	29.4	3.84	8.02	> 35	> 35	2.54	> 35	> 35	3.67
Cn1c(Cn2ccc(C(F)(F)F)c(Oc3ccc(-c4cc(F)cc(C#N)c4)c(F)c3)c2=O)n[nH]c1=O	0.74	> 35	105	143	1.86	2.47	12.1	39.8	1.34	> 35	36.6	1.02
Cn1c(Cn2ccc(C(F)(F)F)c(Oc3ccc(-c4cccc(C#N)c4)cc3Cl)c2=O)n[nH]c1=O	4.07	> 35	22.9	5.62	2.35	2.92	> 35	> 35	3.56	> 35	> 35	7.21
Cn1c(Cn2ccc(C(F)(F)F)c(Oc3ccc(-c4cccc(C#N)c4)cc3F)c2=O)n[nH]c1=O	3.68	> 35	35.3	9.6	4.93	7.38	> 35	> 35	5.41	> 35	> 35	5
Cc1cc(Oc2c(C(F)(F)F)ccn(Cc3n[nH]c(=O)n3C)c2=O)ccc1-c1cccc(C#N)c1	0.7	> 35	82.7	118	1.34	2.09	6.38	38.8	1.01	> 35	33	1.53
Cn1c(Cn2ccc(C(F)(F)F)c(Oc3ccc(-c4ccc(C#N)cc4)c(F)c3)c2=O)n[nH]c1=O	1.28	> 35	48.5	37.8	1.19	3.65	19.4	> 35	1.96	> 35	> 35	1.52
Cc1cc(Oc2c(C(F)(F)F)ccn(Cc3n[nH]c(=O)n3C)c2=O)ccc1-c1cccc(F)c1	2.77	> 35	55.9	20.1	2.14	10.9	> 35	> 35	4	> 35	> 35	4.71
Cc1cc(Oc2c(C(F)(F)F)ccn(Cc3n[nH]c(=O)n3C)c2=O)ccc1-c1ccc(C#N)cc1	2.17	> 35	52.1	24	2.33	8.35	8.83	> 35	3.68	> 35	> 35	4.2
Cn1c(Cn2ccc(C(F)(F)F)c(Oc3ccc(-c4ccc(F)c(C#N)c4)cc3F)c2=O)n[nH]c1=O	5.12	> 35	65.5	12.8	7.27	7.27	39.6	44.8	7.72	> 35	> 35	7
Cn1c(Cn2ccc(C(F)(F)F)c(Oc3ccc(-c4ccc(C#N)cc4)cc3F)c2=O)n[nH]c1=O	4.8	> 35	41.8	8.72	4.6	6.13	48.3	> 35	7.06	> 35	> 35	6.35
Cc1ccccc1-c1ccc(Oc2c(C(F)(F)F)ccn(Cc3n[nH]c(=O)n3C)c2=O)cc1F	3.93	> 35	33.8	8.6	5.3	7.78	5.54	104	4.51	> 35	115	3.21
Cn1c(Cn2ccc(C(F)(F)F)c(Oc3ccc(-c4ccc(C#N)cc4)cc3Cl)c2=O)n[nH]c1=O	6.02	> 35	21.5	3.58	4.55	6.35	> 35	> 35	6.18	> 35	> 35	6.73
Cn1c(Cn2ccc(C(F)(F)F)c(Oc3ccc(-c4cccc(C#N)c4)c(F)c3F)c2=O)n[nH]c1=O	0.96	> 35	48.8	50.8	1.59	2.87	8.36	> 35	1.6	> 35	> 35	1.31
Cn1c(Cn2ccc(C(F)(F)F)c(Oc3ccc(-c4cc(F)cc(C#N)c4)cc3F)c2=O)n[nH]c1=O	3.36	> 35	69.2	20.6	3.72	8.33	38.8	41.5	4.02	38.9	> 35	5.98

Source: ChEMBL document CHEMBL5113480, “Discovery of novel biphenyl-substituted pyridone derivatives as potent non-nucleoside reverse transcriptase inhibitors with promising oral bioavailability” (Eur J Med Chem, 2022)
